Experiments:
[1] = target: T1, 5-hydroxytryptamine receptor 1A (Homo sapiens, UniProt P08908); assay: Displacement of [3H]8-OH-DPAT from 5HT1A receptor expressed in CHO cells; type: cell-based
T1 sequence (P08908 whole entry): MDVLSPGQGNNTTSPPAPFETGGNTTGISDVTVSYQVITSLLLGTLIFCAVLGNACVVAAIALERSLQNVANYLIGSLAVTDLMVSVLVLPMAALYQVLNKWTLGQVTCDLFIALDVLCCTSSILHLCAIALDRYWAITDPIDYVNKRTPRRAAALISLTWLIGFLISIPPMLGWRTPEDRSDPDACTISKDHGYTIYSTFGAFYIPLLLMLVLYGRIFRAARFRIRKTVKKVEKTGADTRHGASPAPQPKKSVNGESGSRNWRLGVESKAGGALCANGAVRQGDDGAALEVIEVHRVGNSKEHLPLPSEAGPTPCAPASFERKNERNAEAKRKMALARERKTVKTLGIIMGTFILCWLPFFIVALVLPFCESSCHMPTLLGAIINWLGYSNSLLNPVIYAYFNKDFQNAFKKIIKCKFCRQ

[2] = target: Sodium-dependent serotonin transporter (Rattus norvegicus, UniProt P31652); assay: Displacement of [3H]paroxetine from rat cortical 5-HT reuptake
Sequence of Sodium-dependent serotonin transporter (P31652 whole entry): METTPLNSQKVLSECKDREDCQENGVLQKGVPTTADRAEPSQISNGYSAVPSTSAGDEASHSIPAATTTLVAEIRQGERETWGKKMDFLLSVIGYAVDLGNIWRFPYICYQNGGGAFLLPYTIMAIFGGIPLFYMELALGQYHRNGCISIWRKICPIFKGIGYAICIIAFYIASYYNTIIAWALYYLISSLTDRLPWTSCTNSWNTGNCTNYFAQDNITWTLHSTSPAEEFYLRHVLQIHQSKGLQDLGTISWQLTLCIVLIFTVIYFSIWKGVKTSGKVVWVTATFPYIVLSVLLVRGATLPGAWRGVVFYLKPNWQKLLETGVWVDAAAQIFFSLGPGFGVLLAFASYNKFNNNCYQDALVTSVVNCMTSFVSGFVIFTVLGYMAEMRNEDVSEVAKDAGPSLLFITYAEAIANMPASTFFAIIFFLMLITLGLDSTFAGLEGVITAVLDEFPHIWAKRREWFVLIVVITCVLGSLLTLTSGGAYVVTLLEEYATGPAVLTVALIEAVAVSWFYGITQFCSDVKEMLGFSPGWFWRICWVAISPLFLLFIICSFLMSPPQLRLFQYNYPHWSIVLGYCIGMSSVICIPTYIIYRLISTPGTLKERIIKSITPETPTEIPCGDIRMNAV

[3] = target: T1, 5-hydroxytryptamine receptor 1A; assay: Intrinsic activity assessed by stimulation of [35S]GTP-gamma-S binding in CHO cells expressing 5HT1A receptor; type: functional, cell-based
[4] = target: T2, 5-hydroxytryptamine receptor 1A (Homo sapiens) (UniProt P08908); assay: Agonist activity assessed by stimulation of [35S]GTPgammaS binding in CHO cells expressing 5HT1A receptor relative to 5HT; type: functional, cell-based
T2 sequence (whole entry): T1 sequence (P08908 whole entry)

[5] = target: Adrenergic receptor alpha-1 (Rattus norvegicus) (UniProt P15823+P23944+P43140); assay: Inhibition of [3H]prazosin binding to adrenergic alpha-1 receptor in rat cortical membrane at 100 nM; type: cell membranes
[6] = target: T3, Adrenergic receptor alpha-1 (Rattus norvegicus, UniProt P15823+P23944+P43140); assay: Displacement of [3H]prazosin from adrenergic alpha-1 receptor in rat cortical membrane; type: cell membranes
T3 sequence (P15823 whole entry): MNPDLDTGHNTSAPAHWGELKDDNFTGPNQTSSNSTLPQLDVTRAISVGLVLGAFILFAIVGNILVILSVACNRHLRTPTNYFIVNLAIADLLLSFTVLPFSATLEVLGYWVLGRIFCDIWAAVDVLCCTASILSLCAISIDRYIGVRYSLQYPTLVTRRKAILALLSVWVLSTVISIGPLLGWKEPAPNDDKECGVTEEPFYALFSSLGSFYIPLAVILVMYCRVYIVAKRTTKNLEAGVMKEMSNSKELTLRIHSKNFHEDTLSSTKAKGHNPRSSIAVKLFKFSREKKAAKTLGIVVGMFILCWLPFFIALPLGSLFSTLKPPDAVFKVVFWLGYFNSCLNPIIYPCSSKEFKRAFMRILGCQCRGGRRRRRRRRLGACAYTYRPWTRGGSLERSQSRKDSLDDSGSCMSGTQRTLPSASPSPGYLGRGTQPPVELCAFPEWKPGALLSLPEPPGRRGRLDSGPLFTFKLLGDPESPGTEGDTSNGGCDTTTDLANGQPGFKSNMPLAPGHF
T3 sequence (P23944 whole entry): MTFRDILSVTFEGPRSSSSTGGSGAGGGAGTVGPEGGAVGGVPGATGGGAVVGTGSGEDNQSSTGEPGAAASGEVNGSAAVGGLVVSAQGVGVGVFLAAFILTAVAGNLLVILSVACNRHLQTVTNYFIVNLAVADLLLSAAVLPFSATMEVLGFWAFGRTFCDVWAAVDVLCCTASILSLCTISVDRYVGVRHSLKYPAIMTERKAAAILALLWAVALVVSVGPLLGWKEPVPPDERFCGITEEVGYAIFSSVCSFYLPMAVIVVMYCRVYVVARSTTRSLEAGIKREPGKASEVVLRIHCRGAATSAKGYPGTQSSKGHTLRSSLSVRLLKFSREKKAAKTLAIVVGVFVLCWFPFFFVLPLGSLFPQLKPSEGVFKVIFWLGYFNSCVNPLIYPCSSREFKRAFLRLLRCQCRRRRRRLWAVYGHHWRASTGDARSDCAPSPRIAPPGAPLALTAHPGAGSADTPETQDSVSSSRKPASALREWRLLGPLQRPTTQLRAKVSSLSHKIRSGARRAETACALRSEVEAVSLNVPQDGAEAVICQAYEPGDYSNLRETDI
T3 sequence (P43140 whole entry): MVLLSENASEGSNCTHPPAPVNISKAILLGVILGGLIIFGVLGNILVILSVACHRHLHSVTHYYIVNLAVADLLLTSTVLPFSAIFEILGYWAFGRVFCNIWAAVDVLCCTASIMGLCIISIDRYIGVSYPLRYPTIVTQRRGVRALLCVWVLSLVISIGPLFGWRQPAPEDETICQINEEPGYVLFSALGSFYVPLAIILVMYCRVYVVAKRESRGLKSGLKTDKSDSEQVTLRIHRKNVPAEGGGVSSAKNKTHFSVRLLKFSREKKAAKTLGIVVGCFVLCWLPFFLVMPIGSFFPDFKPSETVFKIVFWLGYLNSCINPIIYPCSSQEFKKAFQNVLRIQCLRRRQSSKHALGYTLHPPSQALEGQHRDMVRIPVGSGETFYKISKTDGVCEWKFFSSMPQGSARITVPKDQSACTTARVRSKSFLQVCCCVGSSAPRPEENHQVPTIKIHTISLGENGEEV

[7] = target: Sodium-dependent serotonin transporter (Rattus norvegicus) (UniProt P31652); assay: Inhibition of [3H]paroxetine binding to rat cortical 5-HT reuptake at 100 nM
Sequence of Sodium-dependent serotonin transporter (Rattus norvegicus) (P31652 whole entry): as the sequence (P31652 whole entry) above

Structure (SMILES)	Ki [1]	Ki [2]	EC50 [3]	Emax [4]	inhibition [5]	Ki [6]	inhibition [7]
c1ccc(CN2CC(CNCCCc3c[nH]c4ccccc34)Oc3ccccc32)cc1 (centres undefined)	76.1 nM	109 nM	1380 nM	64%	–	–	–
CN1CC(CNCCc2c[nH]c3ccc(F)cc23)Oc2ccccc21 (centres undefined)	8.46 nM	12.4 nM	167 nM	80%	26%	–	–
CN1CC(CNCCc2c[nH]c3ccc(F)cc23)Oc2cc(Cl)ccc21 (centres undefined)	75.2 nM	42.6 nM	336 nM	64%	–	607 nM	–
CCCN1CC(CNCCc2c[nH]c3ccccc23)Oc2ccccc21 (centres undefined)	12.8 nM	22.7 nM	196 nM	100%	–	481 nM	–
CCCN1CC(CN2CC=C(c3c[nH]c4ccc(F)cc34)CC2)Oc2c(OC)cccc21 (centres undefined)	–	22.6 nM	135 nM	92%	–	505.5 nM	–
Fc1ccc2[nH]cc(CCNCC3CNc4ccccc4O3)c2c1 (centres undefined)	11 nM	16 nM	155 nM	100%	–	70 nM	–
C1=C(c2c[nH]c3ccccc23)CCN(CC2CNc3ccccc3O2)C1 (centres undefined)	–	8.37 nM	1130 nM	62%	–	16.6 nM	–
Fc1ccc2[nH]cc(CCNCC3CN(Cc4ccccc4)c4ccccc4O3)c2c1 (centres undefined)	7.25 nM	–	–	–	–	–	23%
CCN1CC(CN2CC=C(c3c[nH]c4ccc(F)cc34)CC2)Oc2c(OC)cccc21 (centres undefined)	–	13.2 nM	418 nM	54%	–	229 nM	–
CCN1CC(CNCCc2c[nH]c3ccc(F)cc23)Oc2ccccc21 (centres undefined)	15.3 nM	15.3 nM	90 nM	100%	–	–	–
COc1cccc2c1OC(CNCCc1c[nH]c3ccc(F)cc13)CN2 (centres undefined)	9.31 nM	3.13 nM	52.2 nM	66%	–	7.6 nM	–
CN1CC(CNCCc2c[nH]c3ccccc23)Oc2ccccc21 (centres undefined)	5.86 nM	88.5 nM	33.6 nM	95%	28%	–	–
c1ccc(N2CC(CNCCCc3c[nH]c4ccccc34)Oc3ccccc32)cc1 (centres undefined)	75.8 nM	–	–	–	–	–	7%
CC(C)N1CC(CNCCCc2c[nH]c3ccccc23)Oc2ccccc21 (centres undefined)	90.4 nM	23.8 nM	329 nM	88%	–	–	–
CC(C)N1CC(CNCCc2c[nH]c3ccc(F)cc23)Oc2ccccc21 (centres undefined)	2.81 nM	21.1 nM	191 nM	90%	–	–	–
Fc1ccc2[nH]cc(CCNCC3CN(c4ccccc4)c4ccccc4O3)c2c1 (centres undefined)	7.14 nM	–	–	–	65%	–	43%
CC(C)CN1CC(CNCCc2c[nH]c3ccc(F)cc23)Oc2ccccc21 (centres undefined)	8.15 nM	51.5 nM	329 nM	88%	–	–	–
COc1cccc2c1OC(CN1CC=C(c3c[nH]c4ccc(F)cc34)CC1)CN2C (centres undefined)	–	12.6 nM	190 nM	93%	–	96.5 nM	–
c1ccc(N2CC(CNCCc3c[nH]c4ccccc34)Oc3ccccc32)cc1 (centres undefined)	30.2 nM	–	–	–	–	–	23%
COc1cccc2c1OC(CN1CC=C(c3c[nH]c4ccc(F)cc34)CC1)CN2 (centres undefined)	–	6.94 nM	386 nM	35%	–	14.5 nM	–
COc1ccc2c(c1)OC(CNCCc1c[nH]c3ccc(F)cc13)CN2 (centres undefined)	103 nM	11.7 nM	181 nM	56%	–	44.5 nM	–
c1ccc2c(c1)NCC(CNCCc1c[nH]c3ccccc13)O2 (centres undefined)	6.91 nM	89.8 nM	93.5 nM	96%	26%	–	–

From ChEMBL document CHEMBL1138978, “Studies toward the discovery of the next generation of antidepressants. Part 5: 3,4-Dihydro-2H-benzo[1,4]oxazine derivatives with dual 5-HT1A receptor and serotonin transporter affinity” (Bioorg Med Chem Lett, 2006)
